According to EP0565593B1, “REDUCING PESTICIDAL INTERACTIONS IN CROPS” (priority 1990, dated 1992):
Values joined by “and” are separate entries in the source; they are usually repeats but may differ in a detail not shown here. Equal entries are not always repeated. Where two headings read alike, the source gives them in different places.

What was measured:
Corn [1] = assay: whole plant or invertebrate; settings: Zea mays, iv; for inhibition at 20 g/ha: read-out: % Inhibition Corn, XRD-498 0.02 Kg/Ha alone
SJCA = assay: Greenhouse test Procedure IV: herbicide, biocide and antidote PPI, weed SJCA (Examples 53-55; Tables 52-54); assay type: in vivo; settings: all PPI
Excerpt: The test in this example paralleled that in Example 51, except the procedure was according to Procedure IV above and the herbicides used were No. 1 (MON-12000); No. 21 (XRD-498) and, again, No. 18 (PURSUIT); the biocide was, again, MOCAP®. Observations were taken thirteen (13) days after PPI treatment with biocide and antidote.
This test was identical to that in Example 52, except for use of a different biocide, DIAZINON (Biocide No. 5, a nematicide and soil insecticide).
This test was also identical to that in the preceding two examples, except that the biocide was malathion (No. 7, an insecticide).
This test was identical to the preceding ones, except the biocide was DPX-43898 (No. 6, active ingredient in FORTRESS® insecticide, a soil insecticide). Also, the observation time was fourteen (14) days after PPI initiation.

Giant foxtail (GIFT) = assay: whole plant or invertebrate; assay type: in vivo; settings: for inhibition at 140 g/ha / inhibition at 20 g/ha: Setaria faberi, iv; for inhibition at 20 g/ha: XRD-498 0.02 Kg/Ha alone
Velvetleaf (VELE) [2] = assay type: in vivo, Abutilon theophrasti
Velvetleaf (VELE) [3] = assay: whole plant or invertebrate; assay type: in vivo, Abutilon theophrasti; settings: for inhibition at 140 g/ha / inhibition at 20 g/ha: Abutilon theophrasti, iv; for inhibition at 20 g/ha: XRD-498 0.02 Kg/Ha alone
Shattercane (SHCA) = assay type: in vivo
Corn [4] = test system: Corn
Corn [5] = test system: Corn; remark: listed apart in the source
[6] = 312 h, Table 51, Herbicide No. 18 0.14 Kg/Ha, where applied Biocide No. 8 8.96 kg/Ha and antidote 4.48 Kg/Ha, all PPI, observed 13 days after treatment
[7] = Herbicide No. 18 0.0175 Kg/Ha POE alone, Table 17
[8] = Herbicide No. 18 0.0175 Kg/Ha POE alone, Table 18
[9] = no antidote, […], observed 10 days after herbicide application
[10] = Herbicide No. 18 alone, POE 5 DAP, observed 13 DAP
[11] = 312 h, PPI, 13 days after PPI (Table 31)
[12] = 336 h, PPI, 14 days after PPI (Table 34)
[13] = Herb. […], PPI, 13 days after planting
[14] = Herbicide No. 21 0.0175 Kg/Ha PPI alone, Table 23
[15] = Herbicide No. 21 0.0175 Kg/Ha PPI alone, Table 24
[16] = Herbicide No. 21 0.0175 Kg/Ha PPI alone, Table 25
[17] = Herbicide No. 21 0.0175 Kg/Ha PPI alone, Table 26
[18] = 312 h, Herb. No. 21 0.14 kg/Ha alone, PPI, 13 days after planting
[19] = 312 h, Table 51, Herbicide No. 21 0.14 Kg/Ha, where applied Biocide No. 8 8.96 kg/Ha and antidote 4.48 Kg/Ha, all PPI, observed 13 days after treatment
[20] = XRD-498 0.02 Kg/Ha PPI alone, 13 days after treatment
[21] = […], PPI, 13 days after PPI (Table 31)
[22] = […], PPI, 14 days after PPI (Table 34)

CC(C)C1(C)N=C(c2ncccc2C(=O)O)NC1=O (stereo not drawn) [Herbicide No. 18, 3-Pyridinecarboxylic acid, 2-[4,5-dihydro-4-methyl-4-(1-methylethyl)-5-oxo-1H-imidazol-2-yl]-, reference compound]
inhibition at 140 g/ha (Corn [1]; 312 h, read-out: % Inhibition Corn, Table 51, Herbicide No. 18 0.14 Kg/Ha, where applied Biocide No. 8 8.96 kg/Ha and antidote 4.48 Kg/Ha, all PPI, observed 13 days after treatment): 15% | inhibition at 140 g/ha (Corn [1]; 312 h, read-out: % Inhibition Corn, Table 52, Herbicide No. 18 0.14 Kg/Ha, where applied Biocide No. 5 8.96 kg/Ha and antidote 4.48 Kg/Ha, all PPI, observed 13 days after treatment): 10% | inhibition at 140 g/ha (Corn [1]; 312 h, read-out: % Inhibition Corn, Table 53, Herbicide No. 18 0.14 Kg/Ha, where applied Biocide No. 7 8.96 kg/Ha and antidote 4.48 Kg/Ha, all PPI, observed 13 days after treatment): 15% | inhibition at 140 g/ha (Corn [1]; 336 h, read-out: % Inhibition Corn, Table 54, Herbicide No. 18 0.14 Kg/Ha, where applied Biocide No. 6 8.96 kg/Ha and antidote 4.48 Kg/Ha, all PPI, observed 14 days after PPI initiation): 15% | inhibition at 140 g/ha (SJCA; 312 h, Table 52, Herbicide No. 18 0.14 Kg/Ha, where applied Biocide No. 5 8.96 kg/Ha and antidote 4.48 Kg/Ha, observed 13 days after treatment): 75% | inhibition at 140 g/ha (SJCA; 312 h, Table 53, Herbicide No. 18 0.14 Kg/Ha, where applied Biocide No. 7 8.96 kg/Ha and antidote 4.48 Kg/Ha, observed 13 days after treatment): 70% | inhibition at 140 g/ha (SJCA; 336 h, Table 54, Herbicide No. 18 0.14 Kg/Ha, where applied Biocide No. 6 8.96 kg/Ha and antidote 4.48 Kg/Ha, observed 14 days after PPI initiation): 75% | inhibition at 140 g/ha (Giant foxtail (GIFT); [6]): 75% | % Inhibition VELE (Velvetleaf (VELE) [2]; [7]): 80% | % Inhibition VELE (Velvetleaf (VELE) [2]; [8]): 85% | % Inhibition VELE (Velvetleaf (VELE) [2]; in vivo): 80% | % Inhibition VELE (Velvetleaf (VELE) [2]; [9]): 80% | inhibition at 140 g/ha (Velvetleaf (VELE) [3]; [6]): 65% | inhibition at 140 g/ha (Velvetleaf (VELE) [3]; 312 h, Table 52, Herbicide No. 18 0.14 Kg/Ha, where applied Biocide No. 5 8.96 kg/Ha and antidote 4.48 Kg/Ha, all PPI, observed 13 days after treatment): 75% | inhibition at 140 g/ha (Velvetleaf (VELE) [3]; 336 h, Table 54, Herbicide No. 18 0.14 Kg/Ha, where applied Biocide No. 6 8.96 kg/Ha and antidote 4.48 Kg/Ha, all PPI, observed 14 days after PPI initiation): 70% | % Inhibition SHCA (Shattercane (SHCA); [7]): 65% | % Inhibition SHCA (Shattercane (SHCA); [8]): 45% | % Inhibition SHCA (Shattercane (SHCA); [10]): 20% | % Inhibition SHCA (Shattercane (SHCA); Table 50, Herbicide No. 18 0.017 Kg/Ha POE, where applied Biocide No. 8 8.96 kg/Ha and antidote 4.48 Kg/Ha PPI, observed 9 days after POE): 40% | % Inhibition SHCA (Shattercane (SHCA); [9]): 60% | % Inhibition Corn (Corn [4]; [7]): 15% | % Inhibition Corn (Corn [4]; [8]): 10% | % Inhibition Corn (Corn [4]; [10]): 5%

Cc1ccn2nc(S(=O)(=O)Nc3c(F)cccc3F)nc2n1 [Herbicide No. 21, 5-Methyl-N-(2,6-difluorophenyl)-1,2,4-triazolo[1,5-a]pyrimidine-2-sulfonamide, reference compound]
inhibition at 140 g/ha (Corn [1]; 312 h, read-out: % Inhibition Corn, Herb. No. 21 0.14 kg/Ha alone, PPI, 13 days after planting): 5% | inhibition at 140 g/ha (Corn [1]; 312 h, read-out: % Inhibition Corn, Table 51, Herbicide No. 21 0.14 Kg/Ha, where applied Biocide No. 8 8.96 kg/Ha and antidote 4.48 Kg/Ha, all PPI, observed 13 days after treatment): 10% | inhibition at 140 g/ha (Corn [1]; 312 h, read-out: % Inhibition Corn, Table 52, Herbicide No. 21 0.14 Kg/Ha, where applied Biocide No. 5 8.96 kg/Ha and antidote 4.48 Kg/Ha, all PPI, observed 13 days after treatment): 5% | inhibition at 140 g/ha (Corn [1]; 312 h, read-out: % Inhibition Corn, Table 53, Herbicide No. 21 0.14 Kg/Ha, where applied Biocide No. 7 8.96 kg/Ha and antidote 4.48 Kg/Ha, all PPI, observed 13 days after treatment): 10% | inhibition at 20 g/ha (Corn [1]; [11]): 5% | inhibition at 140 g/ha (Corn [1]; 336 h, read-out: % Inhibition Corn, Table 54, Herbicide No. 21 0.14 Kg/Ha, where applied Biocide No. 6 8.96 kg/Ha and antidote 4.48 Kg/Ha, all PPI, observed 14 days after PPI initiation): 10% | inhibition at 20 g/ha (Corn [1]; [12]): 20% | inhibition at 140 g/ha (SJCA; 312 h, Table 52, Herbicide No. 21 0.14 Kg/Ha, where applied Biocide No. 5 8.96 kg/Ha and antidote 4.48 Kg/Ha, observed 13 days after treatment): 70% | inhibition at 140 g/ha (SJCA; 312 h, Table 53, Herbicide No. 21 0.14 Kg/Ha, where applied Biocide No. 7 8.96 kg/Ha and antidote 4.48 Kg/Ha, observed 13 days after treatment): 75% | inhibition at 140 g/ha (SJCA; 336 h, Table 54, Herbicide No. 21 0.14 Kg/Ha, where applied Biocide No. 6 8.96 kg/Ha and antidote 4.48 Kg/Ha, observed 14 days after PPI initiation): 60% | % Inhibition GIFT (Giant foxtail (GIFT); [13]): 95% | % Inhibition GIFT (Giant foxtail (GIFT); [14]): 0% | % Inhibition GIFT (Giant foxtail (GIFT); [15]): 0% | % Inhibition GIFT (Giant foxtail (GIFT); [16]): 0% | % Inhibition GIFT (Giant foxtail (GIFT); [17]): 0% | inhibition at 140 g/ha (Giant foxtail (GIFT); [18]): 40% | inhibition at 140 g/ha (Giant foxtail (GIFT); [19]): 70% | inhibition at 20 g/ha (Giant foxtail (GIFT); [11]): 30% | inhibition at 20 g/ha (Giant foxtail (GIFT); [12]): 35% | % Inhibition GIFT (Giant foxtail (GIFT); [20]): 25% | % Inhibition GIFT (Giant foxtail (GIFT); [21]): 75% | % Inhibition GIFT (Giant foxtail (GIFT); [22]): 65% | % Inhibition GIFT (Giant foxtail (GIFT); in vivo): 60% and 75% and 90% | inhibition at 140 g/ha (Velvetleaf (VELE) [3]; [18]): 75% | inhibition at 140 g/ha (Velvetleaf (VELE) [3]; [19]): 80% | inhibition at 140 g/ha (Velvetleaf (VELE) [3]; 312 h, Table 52, Herbicide No. 21 0.14 Kg/Ha, where applied Biocide No. 5 8.96 kg/Ha and antidote 4.48 Kg/Ha, all PPI, observed 13 days after treatment): 80% | inhibition at 140 g/ha (Velvetleaf (VELE) [3]; 312 h, Table 53, Herbicide No. 21 0.14 Kg/Ha, where applied Biocide No. 7 8.96 kg/Ha and antidote 4.48 Kg/Ha, all PPI, observed 13 days after treatment): 85% | inhibition at 20 g/ha (Velvetleaf (VELE) [3]; [11]): 80% | inhibition at 140 g/ha (Velvetleaf (VELE) [3]; 336 h, Table 54, Herbicide No. 21 0.14 Kg/Ha, where applied Biocide No. 6 8.96 kg/Ha and antidote 4.48 Kg/Ha, all PPI, observed 14 days after PPI initiation): 85% | inhibition at 20 g/ha (Velvetleaf (VELE) [3]; [12]): 80% | % Inhibition VELE (Velvetleaf (VELE) [3]; [14]): 60% | % Inhibition VELE (Velvetleaf (VELE) [3]; [15]): 45% | % Inhibition VELE (Velvetleaf (VELE) [3]; [16]): 60% | % Inhibition VELE (Velvetleaf (VELE) [3]; [17]): 50% | % Inhibition VELE (Velvetleaf (VELE) [3]; [20]): 90% | % Inhibition VELE (Velvetleaf (VELE) [3]; [22]): 90% | % Inhibition VELE (Velvetleaf (VELE) [3]; in vivo): 70% and 75% | % Inhibition VELE (Velvetleaf (VELE) [3]; in vivo, listed as XRD-498): 90% | % Inhibition Corn (Corn [5]; [13]): 75% | % Inhibition Corn (Corn [5]; [14]): 0% | % Inhibition Corn (Corn [5]; [15]): 0% | % Inhibition Corn (Corn [5]; [16]): 0% | % Inhibition Corn (Corn [5]; [17]): 5% | % Inhibition Corn (Corn [5]; [20]): 15% | corn injury (Corn [5]; XRD-498 with OP insecticides, Examples 24-27): 30-55% | corn injury (Corn [5]; XRD-498 without insecticide, Examples 24-27): 0-5% | % Inhibition Corn (Corn [5]; [21]): 70% | % Inhibition Corn (Corn [5]; [22]): 75% | corn injury (Corn [5]; herbicide used in conjunction with COUNTER, Tables 29-37): 55-70% | corn injury (Corn [5]; herbicide without COUNTER, Tables 29-37): 0-5% | % Inhibition Corn (Corn [5]; in vivo): 50% and 30% and 55% | % Inhibition Corn (Corn [5]; in vivo, listed as XRD-498): 75%
